The nature of series [1]: Drug concentration at steady state in human at 25 to 50 mg, po QD after 24 hrs. It is filed as ADME, organism-based. The note with it: in vivo, read-out: Css.
For series [2], the target named is ATP-binding cassette sub-family C member 3 (Homo sapiens, UniProt O15438). Description: Inhibition of human MRP3 overexpressed in Sf9 insect cell membrane vesicles assessed as uptake of [3H]-estradiol-17beta-D-glucuronide in presence of ATP and GSH measured after 10 mins by membrane vesicle transport assay. It counts as ADME, cell-based.
ATP-binding cassette sub-family C member 3, sequence (O15438 whole entry): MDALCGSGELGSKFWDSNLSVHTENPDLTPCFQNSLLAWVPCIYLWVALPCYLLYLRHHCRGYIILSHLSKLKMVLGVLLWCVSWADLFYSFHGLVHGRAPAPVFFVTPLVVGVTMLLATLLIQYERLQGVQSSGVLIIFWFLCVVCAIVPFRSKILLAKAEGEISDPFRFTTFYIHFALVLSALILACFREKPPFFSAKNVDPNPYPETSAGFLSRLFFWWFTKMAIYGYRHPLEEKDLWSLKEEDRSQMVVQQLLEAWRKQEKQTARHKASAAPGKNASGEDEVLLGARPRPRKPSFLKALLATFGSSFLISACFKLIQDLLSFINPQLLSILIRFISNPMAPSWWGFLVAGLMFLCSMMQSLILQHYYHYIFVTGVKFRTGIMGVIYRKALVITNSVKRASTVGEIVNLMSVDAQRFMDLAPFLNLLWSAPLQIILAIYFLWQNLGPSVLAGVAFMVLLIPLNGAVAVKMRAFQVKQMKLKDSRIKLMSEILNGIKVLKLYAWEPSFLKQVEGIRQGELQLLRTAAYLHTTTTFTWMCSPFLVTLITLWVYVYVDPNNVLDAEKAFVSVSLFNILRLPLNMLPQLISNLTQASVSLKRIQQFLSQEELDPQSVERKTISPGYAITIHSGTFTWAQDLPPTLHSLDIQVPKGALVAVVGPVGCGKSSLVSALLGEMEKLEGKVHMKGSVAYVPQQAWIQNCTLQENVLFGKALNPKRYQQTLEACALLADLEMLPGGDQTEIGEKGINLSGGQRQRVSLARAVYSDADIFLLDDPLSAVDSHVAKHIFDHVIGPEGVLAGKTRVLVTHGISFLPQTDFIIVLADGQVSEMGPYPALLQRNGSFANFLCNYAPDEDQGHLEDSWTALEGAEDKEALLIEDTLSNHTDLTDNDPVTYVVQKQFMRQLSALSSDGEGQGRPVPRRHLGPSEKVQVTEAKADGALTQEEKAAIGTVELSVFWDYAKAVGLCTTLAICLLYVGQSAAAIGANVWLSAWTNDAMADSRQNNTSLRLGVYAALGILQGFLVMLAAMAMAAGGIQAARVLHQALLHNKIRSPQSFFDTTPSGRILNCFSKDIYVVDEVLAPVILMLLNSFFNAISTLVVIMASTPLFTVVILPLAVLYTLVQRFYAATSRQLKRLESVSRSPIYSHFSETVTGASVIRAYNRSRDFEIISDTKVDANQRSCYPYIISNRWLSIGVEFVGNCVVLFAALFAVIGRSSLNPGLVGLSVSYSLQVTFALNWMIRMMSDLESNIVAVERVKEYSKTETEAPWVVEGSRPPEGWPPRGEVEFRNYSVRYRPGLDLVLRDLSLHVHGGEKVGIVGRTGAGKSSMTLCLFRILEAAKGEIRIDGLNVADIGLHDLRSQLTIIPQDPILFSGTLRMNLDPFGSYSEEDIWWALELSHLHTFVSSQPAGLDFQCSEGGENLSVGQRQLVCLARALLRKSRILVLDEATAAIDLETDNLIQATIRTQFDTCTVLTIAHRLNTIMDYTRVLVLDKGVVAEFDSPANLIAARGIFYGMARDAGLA
Another series has as its target Bile salt export pump (Homo sapiens, UniProt O95342). In words: Inhibition of human BSEP overexpressed in Sf9 cell membrane vesicles assessed as uptake of [3H]-taurocholate in presence of ATP measured after 15 to 20 mins by membrane vesicle transport assay. It is filed as ADME, cell-based.
The nature of series [3]: Ratio of drug concentration at steady state in human at 25 to 50 mg, po QD after 24 hrs to IC50 for human MRP4 overexpressed in Sf9 insect cells. It counts as ADME, organism-based. As to conditions: in vivo.
Series [4] is described as follows: Ratio of drug concentration at steady state in human at 25 to 50 mg, po QD after 24 hrs to IC50 for human BSEP overexpressed in Sf9 insect cells. It counts as ADME, organism-based. As to conditions: in vivo.
Series [5] addresses T1, ATP-binding cassette sub-family C member 4 (Homo sapiens, UniProt O15439).
T1 sequence (O15439 whole entry): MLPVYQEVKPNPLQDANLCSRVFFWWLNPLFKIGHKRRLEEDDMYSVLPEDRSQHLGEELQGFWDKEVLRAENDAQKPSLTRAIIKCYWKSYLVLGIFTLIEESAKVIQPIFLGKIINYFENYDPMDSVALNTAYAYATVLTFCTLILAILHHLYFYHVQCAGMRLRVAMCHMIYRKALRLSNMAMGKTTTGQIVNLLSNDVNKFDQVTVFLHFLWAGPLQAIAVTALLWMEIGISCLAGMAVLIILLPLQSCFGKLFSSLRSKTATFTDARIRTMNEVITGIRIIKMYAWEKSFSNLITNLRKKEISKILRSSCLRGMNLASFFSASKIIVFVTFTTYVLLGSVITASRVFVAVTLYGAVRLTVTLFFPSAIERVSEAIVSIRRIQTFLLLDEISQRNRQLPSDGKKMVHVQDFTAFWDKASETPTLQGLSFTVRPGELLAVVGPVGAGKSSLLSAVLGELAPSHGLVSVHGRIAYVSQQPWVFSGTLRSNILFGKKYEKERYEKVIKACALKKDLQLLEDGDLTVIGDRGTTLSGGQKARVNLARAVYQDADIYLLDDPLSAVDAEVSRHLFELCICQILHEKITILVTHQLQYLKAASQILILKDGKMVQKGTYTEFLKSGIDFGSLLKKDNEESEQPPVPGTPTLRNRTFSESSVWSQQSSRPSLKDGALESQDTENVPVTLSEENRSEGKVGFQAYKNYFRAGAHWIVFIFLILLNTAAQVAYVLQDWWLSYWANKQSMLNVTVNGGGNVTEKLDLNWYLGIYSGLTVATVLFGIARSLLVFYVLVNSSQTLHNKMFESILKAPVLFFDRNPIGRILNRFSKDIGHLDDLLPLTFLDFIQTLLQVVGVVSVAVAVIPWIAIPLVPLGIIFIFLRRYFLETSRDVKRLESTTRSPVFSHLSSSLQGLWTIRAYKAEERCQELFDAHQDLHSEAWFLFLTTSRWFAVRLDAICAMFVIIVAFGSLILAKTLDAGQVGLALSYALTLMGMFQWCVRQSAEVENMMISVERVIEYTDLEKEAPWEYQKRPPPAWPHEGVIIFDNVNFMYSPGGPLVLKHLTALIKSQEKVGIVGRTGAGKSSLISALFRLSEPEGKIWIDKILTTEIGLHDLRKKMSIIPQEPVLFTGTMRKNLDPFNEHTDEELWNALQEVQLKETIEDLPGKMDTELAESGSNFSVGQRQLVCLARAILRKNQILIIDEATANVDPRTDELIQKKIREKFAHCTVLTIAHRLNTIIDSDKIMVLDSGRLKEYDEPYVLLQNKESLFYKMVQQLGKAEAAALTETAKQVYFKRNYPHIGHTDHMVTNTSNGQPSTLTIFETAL
Description: Inhibition of human MRP4 overexpressed in Sf9 cell membrane vesicles assessed as uptake of [3H]-estradiol-17beta-D-glucuronide in presence of ATP and GSH measured after 20 mins by membrane vesicle transport assay. It is filed as ADME, cell-based.

A short description of series [6]: AUC in human at 25 to 50 mg, po QD after 24 hrs. It is filed as ADME, organism-based. As to conditions: in vivo.
Series [7] deals with ATP-binding cassette sub-family C member 2 (Homo sapiens, UniProt Q92887). Description: Inhibition of human MRP2 overexpressed in Sf9 cell membrane vesicles assessed as uptake of [3H]-estradiol-17beta-D-glucuronide in presence of ATP and GSH measured after 20 mins by membrane vesicle transport assay.
ATP-binding cassette sub-family C member 2, sequence (Q92887 whole entry): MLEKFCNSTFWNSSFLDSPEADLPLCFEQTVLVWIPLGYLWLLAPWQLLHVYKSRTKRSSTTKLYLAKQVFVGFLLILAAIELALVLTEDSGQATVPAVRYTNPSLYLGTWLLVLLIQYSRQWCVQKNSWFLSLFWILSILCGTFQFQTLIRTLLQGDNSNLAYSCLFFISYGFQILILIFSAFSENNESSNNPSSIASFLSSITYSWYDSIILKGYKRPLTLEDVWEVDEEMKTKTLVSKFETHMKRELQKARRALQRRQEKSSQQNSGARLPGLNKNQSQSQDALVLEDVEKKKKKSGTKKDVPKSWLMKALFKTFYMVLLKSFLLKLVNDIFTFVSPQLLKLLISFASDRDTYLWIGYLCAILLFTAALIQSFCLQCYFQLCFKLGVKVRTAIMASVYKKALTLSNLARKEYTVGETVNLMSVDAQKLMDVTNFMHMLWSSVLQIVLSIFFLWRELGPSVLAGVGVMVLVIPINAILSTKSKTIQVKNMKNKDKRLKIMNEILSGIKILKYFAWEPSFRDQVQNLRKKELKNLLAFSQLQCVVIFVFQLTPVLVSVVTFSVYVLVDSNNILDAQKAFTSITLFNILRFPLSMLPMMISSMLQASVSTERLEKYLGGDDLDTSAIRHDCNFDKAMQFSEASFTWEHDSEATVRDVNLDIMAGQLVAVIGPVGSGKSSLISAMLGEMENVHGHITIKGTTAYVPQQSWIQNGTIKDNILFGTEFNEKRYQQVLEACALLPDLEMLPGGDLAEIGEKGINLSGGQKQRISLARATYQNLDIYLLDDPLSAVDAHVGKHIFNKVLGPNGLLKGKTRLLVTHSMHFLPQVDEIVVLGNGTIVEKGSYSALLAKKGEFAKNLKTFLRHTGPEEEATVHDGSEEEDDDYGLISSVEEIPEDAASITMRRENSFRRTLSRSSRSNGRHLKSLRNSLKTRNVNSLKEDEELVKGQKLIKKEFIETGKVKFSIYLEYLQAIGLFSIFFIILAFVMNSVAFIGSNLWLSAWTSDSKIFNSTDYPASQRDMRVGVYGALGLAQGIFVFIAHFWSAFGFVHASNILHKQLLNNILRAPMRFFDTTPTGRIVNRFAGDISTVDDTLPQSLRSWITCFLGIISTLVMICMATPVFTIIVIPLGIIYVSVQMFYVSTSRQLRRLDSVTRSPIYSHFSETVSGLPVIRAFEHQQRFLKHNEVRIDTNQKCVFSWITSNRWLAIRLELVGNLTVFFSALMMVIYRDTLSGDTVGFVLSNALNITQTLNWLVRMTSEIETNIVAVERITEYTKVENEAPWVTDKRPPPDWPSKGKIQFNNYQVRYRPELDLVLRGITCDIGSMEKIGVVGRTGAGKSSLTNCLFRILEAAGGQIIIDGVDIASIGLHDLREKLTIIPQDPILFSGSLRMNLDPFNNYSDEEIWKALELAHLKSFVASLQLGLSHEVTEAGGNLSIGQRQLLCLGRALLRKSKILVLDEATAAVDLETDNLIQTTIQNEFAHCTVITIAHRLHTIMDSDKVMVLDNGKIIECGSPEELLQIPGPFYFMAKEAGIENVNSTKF
The subject of series [8] is Homo sapiens. In words: Ratio of drug concentration at steady state in human at 0.25 mg, sc QD after 24 hrs to IC50 for human BSEP overexpressed in Sf9 insect cells. The note with it: in vivo. It is filed as ADME, organism-based.
The nature of series [9]: AUC in human at 0.25 mg, sc QD after 24 hrs. It counts as ADME, organism-based. Also on record: dose 0.25 mg, time < 24 hr, route subcutaneous. As to conditions: in vivo.
A short description of series [10]: AUC in human at 3 mg, sc administered as single dose during early to mild follicular phase after 24 hrs. It is filed as ADME, organism-based. Also on record: dose 3 mg, time < 24 hr, route subcutaneous. As to conditions: female, in vivo.
Series [11] deals with Homo sapiens. Description: Ratio of drug concentration at steady state in human at 3 mg, sc administered as single dose during early to mild follicular phase after 24 hrs to IC50 for human BSEP overexpressed in Sf9 insect cells. It is filed as ADME, organism-based. As to conditions: in vivo.
The test system of series [12] is Homo sapiens. In words: Drug concentration at steady state in human 3 mg, sc administered as single dose during early to mild follicular phase after 24 hrs. It counts as ADME, organism-based. As to conditions: in vivo.
A short description of series [13]: Drug concentration at steady state in human at 0.25 mg, sc QD after 24 hrs. It is filed as ADME, organism-based. The note with it: in vivo, read-out: Css.
Series [14] in a line: Ratio of drug concentration at steady state in human at 100 to 300 mg, po QD after 24 hrs to IC50 for human MRP2 overexpressed in Sf9 insect cells. It is filed as ADME, organism-based. The note with it: in vivo.
Series [15] can be described thus: Drug concentration at steady state in human at 100 to 300 mg, po QD after 24 hrs. As to conditions: in vivo, read-out: Css. It is filed as ADME, organism-based.
A short description of series [16]: Ratio of drug concentration at steady state in human at 100 to 300 mg, po QD after 24 hrs to IC50 for human MRP3 overexpressed in Sf9 insect cells. It is filed as ADME, organism-based. As to conditions: in vivo.
Series [17] is described as follows: Cmax in human at 100 to 300 mg, po QD after 24 hrs. It is filed as ADME, organism-based. As to conditions: in vivo.
A short description of series [18]: Ratio of drug concentration at steady state in human at 100 to 300 mg, po QD after 24 hrs to IC50 for human MRP4 overexpressed in Sf9 insect cells. It is filed as ADME, organism-based. As to conditions: in vivo.
Series [19] in a line: Ratio of drug concentration at steady state in human at 100 to 300 mg, po QD after 24 hrs to IC50 for human BSEP overexpressed in Sf9 insect cells. It is filed as ADME, organism-based. The note with it: in vivo.

We go through 3 compounds from ChEMBL document CHEMBL4028801, “A multifactorial approach to hepatobiliary transporter assessment enables improved therapeutic compound development” (Toxicol Sci, 2013).

Non-standard residues stand in square brackets, D forms with d. Residues, ends and D or L forms follow the SMILES beside them. dPhe(4-Cl) = N[C@H](Cc1ccc(Cl)cc1)C(=O)O; d2Nal = N[C@H](Cc1ccc2ccccc2c1)C(=O)O; dCit = NC(=O)NCCC[C@@H](N)C(=O)O; d3Pal = N[C@H](Cc1cccnc1)C(=O)O

Bile salt export pump, sequence (O95342 whole entry): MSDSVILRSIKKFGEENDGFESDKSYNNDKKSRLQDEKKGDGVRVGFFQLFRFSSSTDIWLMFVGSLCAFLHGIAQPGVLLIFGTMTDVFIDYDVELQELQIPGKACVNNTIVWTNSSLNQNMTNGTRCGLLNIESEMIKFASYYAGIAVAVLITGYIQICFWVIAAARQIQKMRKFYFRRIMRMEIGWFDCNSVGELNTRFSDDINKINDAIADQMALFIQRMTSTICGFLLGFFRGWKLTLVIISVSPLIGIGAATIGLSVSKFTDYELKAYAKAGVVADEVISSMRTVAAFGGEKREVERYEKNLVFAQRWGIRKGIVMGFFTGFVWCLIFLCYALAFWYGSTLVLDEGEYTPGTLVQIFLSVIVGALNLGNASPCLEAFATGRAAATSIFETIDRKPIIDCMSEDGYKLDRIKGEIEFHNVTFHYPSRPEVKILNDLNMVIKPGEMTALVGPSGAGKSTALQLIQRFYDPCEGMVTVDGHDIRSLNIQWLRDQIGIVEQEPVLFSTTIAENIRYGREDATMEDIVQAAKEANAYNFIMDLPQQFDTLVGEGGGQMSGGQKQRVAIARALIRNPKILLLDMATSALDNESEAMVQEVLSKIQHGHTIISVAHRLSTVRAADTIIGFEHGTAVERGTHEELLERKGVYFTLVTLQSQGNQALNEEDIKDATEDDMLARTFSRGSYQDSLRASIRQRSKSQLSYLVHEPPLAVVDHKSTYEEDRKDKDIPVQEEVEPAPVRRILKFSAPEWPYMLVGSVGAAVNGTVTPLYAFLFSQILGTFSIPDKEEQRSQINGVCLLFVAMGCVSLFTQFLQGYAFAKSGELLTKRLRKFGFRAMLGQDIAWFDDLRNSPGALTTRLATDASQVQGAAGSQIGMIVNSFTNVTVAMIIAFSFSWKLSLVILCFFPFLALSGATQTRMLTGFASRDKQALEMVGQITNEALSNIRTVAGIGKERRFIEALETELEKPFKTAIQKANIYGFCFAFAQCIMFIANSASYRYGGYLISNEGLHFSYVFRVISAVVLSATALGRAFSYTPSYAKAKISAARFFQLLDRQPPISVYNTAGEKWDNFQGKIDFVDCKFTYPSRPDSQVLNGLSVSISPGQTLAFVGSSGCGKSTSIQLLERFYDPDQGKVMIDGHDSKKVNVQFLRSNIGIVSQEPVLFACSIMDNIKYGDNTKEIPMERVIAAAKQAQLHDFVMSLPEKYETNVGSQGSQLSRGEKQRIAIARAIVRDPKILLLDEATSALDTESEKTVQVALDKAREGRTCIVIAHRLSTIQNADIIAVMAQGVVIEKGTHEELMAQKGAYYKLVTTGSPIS

As a reminder, the IC50 is the concentration at which inhibition is half-maximal. What is called AUC is concentration integrated over time. As for `COc1cc(C)c(/C=C/C(C)=C/C=C/C(C)=C/C(=O)O)c(C)c1C` [ACITRETIN], the concentration at 24 h in series [1] stood at 255 nM. In addition, the values for the IC50 (in series [2]; at Bile salt export pump; in series [5]) were over 133 µM, 38.2 µM and 49 µM, respectively. The Ratio is reported as 0.005 in series [3] and 0.007 in [4]. The AUC at 24 h in series [6] stood at 6.13 µM·h.
Regarding `CC(=O)N[C@H](Cc1ccc2ccccc2c1)C(=O)N[C@H](Cc1ccc(Cl)cc1)C(=O)N[C@H](Cc1cccnc1)C(=O)N[C@@H](CO)C(=O)N[C@@H](Cc1ccc(O)cc1)C(=O)N[C@H](CCCNC(N)=O)C(=O)N[C@@H](CC(C)C)C(=O)N[C@@H](CCCNC(=N)N)C(=O)N1CCC[C@H]1C(=O)N[C@H](C)C(N)=O.CC(=O)O` [CETRORELIX ACETATE] (Ac-[d2Nal][dPhe(4-Cl)][d3Pal]SY[dCit]LRP[dA]-NH2), the IC50 in series [7] was over 133 µM; in series [2], over 133 µM; at Bile salt export pump, 1.47 µM; in [5], over 133 µM. Besides, the Ratio in the series on Homo sapiens [8] and in the series with Homo sapiens [11] was 0.011 in each case. Also, the AUC at 24 h in series [9] and in [10] was 0.375 µM·h in each case. Further, the Css with Homo sapiens [12] was determined as 16 nM. In series [13], the concentration at 24 h worked out at 16 nM.
One may read the Cmax as the peak of the concentration-time curve. With `CC(C)/N=c1\cc2n(-c3ccc(Cl)cc3)c3ccccc3nc-2cc1Nc1ccc(Cl)cc1` [CLOFAZIMINE], the IC50 in series [7] was 10.4 µM; in series [2], 21 µM; in [5] it was 44.5 µM. For the same compound, the Ratio in series [14] is recorded as 0.008; in series [16], 0.004; in series [18] it was 0.002; in series [19] it was 0.007. Further, the concentration at 24 h in series [15] came out at 88 nM. In addition, the Cmax in [17] was 2.11 ng/mL.
